Test results: patent publication US20160113895A1, “Novel Use of Adapalene in Treating Esophageal Cancer and Gastrointestinal Stromal Tumor” (Biodelight Biotech Inc., priority 2013, published 2016)

What was measured:
A549 = assay: 2D cell proliferation assay (Alamar Blue), A549; format: cell-based, human; settings: Homo sapiens; 2D, A549, 72 h; read-out: IC50
Description: Nsl-8 was subjected to 2D cell proliferation assays using four NSCLC cell lines (A549 (human adenocarcinomic alveolar basal epithelial cells with k-ras gene mutation), H1299 (human non-small cell lung carcinoma cell line with p53 mutation), H460 (human non-small cell lung carcinoma cell line with k-ras gene mutation), and HCC827 (human NSCLC cells with EGFR mutation of deletion from E746 to A750)) and the results were presented in Table 2. There were eight concentrations used for each drug for determining its IC50. […]. Actinomycin D was a chemotherapeutic drug simply used as a quality control for all the experiments.
(§1) In the 2D cell proliferation assay, cells were cultured in DMEM containing 10% FCS and Penicillin/Streptomycin. For the assays, cells were seeded in 150 μL medium on a 96-well cell culture plate and incubated at 37° C. overnight before the compounds were added. Compounds were prepared as predilution which was 16 fold concentrated to the final assay concentration. A day after cell seeding, 10 μL of prediluted compounds was added to the cells (1:16 dilution). Treatment of cells with 0.1% DMSO or 1% DMSO (for the two top concentrations of nsl-8) and 1.0E-05 M Staurosporine was served as high control (100% viability) and low control (0% viability), respectively. Measurement of the impact of compounds on cell viability was performed as follows: 5000 cells (A549 and HCC827) or 2500 cells (H1299 and H460) were seeded in the inner wells of 96-well-plates in 150 μL complete medium. Next day, compounds were added to the medium to reach the final concentration and then incubated at 37° C. in 5% or 10% CO2 depending on the medium for 72 h. Subsequently 10 μL Alamar Blue reagent was added and fluorescence at 590 nm was measured after 5 h incubation at 37° C. in 5% CO2 using a fluorometer.
(§2) Raw data were converted into percent cell viability relative to high control (solvent 0.1% DMSO or 1% DMSO for the two top concentrations of drug nsl-8) and low control (1.0E-05 M Staurosporine), which were set to 100% and 0%, respectively.

HCC827 = assay: 2D cell proliferation assay (Alamar Blue), HCC827; format: cell-based, human; settings: Homo sapiens, HCC827, 72 h
Protocol: There were eight concentrations used for each drug for determining its IC50. […] Actinomycin D was a chemotherapeutic drug simply used as a quality control for all the experiments.
as §1, with “Compounds were prepared as predilution which was 16 fold concentrated to the final assay concentration.” left out, “h.” for “h. Subsequently 10 μL Alamar Blue reagent was added and fluorescence at 590 nm was measured after 5 h incubation at 37° C. in 5% CO2 using a fluorometer.”
as §2

HCC827 implanted tumors = assay: Subcutaneous HCC827 xenograft model, groups 3a-3c, o.p.; settings: for Tumor inhibition rate (%): HCC827, o.p. once daily, NSL-8 70 mpk, Tarceva 20 mpk
Protocol: The antitumor efficacy of the drug lead nsl-8 searched was studied using the subcutaneous xenografted A549 and HCC827 lung cancer tumor models in vivo. […] Mice were maintained in individual ventilated cages (IVC, max. 4 mice/cage) at constant temperature and humidity. Animal weights were determined three times (Monday, Wednesday and Friday) for groups 1a and 1b or two times (Monday and Thursday) for groups 2a-2c and 3a-3c animals. Animal behaviour was monitored daily.
On day 0, either 2×10^6 A549 or 2×10^6 HCC827 tumor cells in 100 μL PBS were implanted into the subcutaneous space of the left flank of all corresponding BALB/c nude and SCID mice, respectively. In the following, tumor sizes were determined by caliper measurement. Tumor sizes were calculated according to the formula W^2×Lg/2 (Lg=length and W=the perpendicular width of the tumor, L>W). On day 48 or 30, after mean tumor volumes had reached approx. 100 mm^3, the corresponding tumor-bearing animals were randomized into 2 groups of 8 (A549 model: groups 1a and 1b) or 10 animals (A549 model: groups 2a and 2b) according to tumor sizes. On day 24 or 28, after mean tumor volumes had reached approx. 100 mm^3, the corresponding tumor-bearing animals were randomized into 2 groups of 10 animals (HCC827 model: groups 3a and 3b) according to tumor sizes. […] The percentage of tumor growth inhibition (TGI) was calculated using the following formula: […]
where T and C represent the mean tumor volume of the treatment and the control group, respectively.
The solution was aliquoted into several 15 ml sterile centrifuge tubes in 650 μl quantity per tube and then stored frozen at −80° C. until use. […] Animals of group 1b received 40 mg/kg nsl-8 dosage solution once daily through i.p. route on days 48-52 and 62-66, while those of groups 2b and 3b received 70 mg/kg nsl-8 dosage solution once daily through o.p. route on days 1-14 (group 2b) and days 1-14 (group 3b), respectively (Table 4).
Groups 1a and 1b (A549 model) were terminated on day 69, while groups 2a-2c (A549 model) and 3a-3c (HCC827 model) were terminated on day 15. At necropsy, animals were killed by cervical dislocation. Primary tumor weights and volumes were determined. The tumor volume and weight were analysed using descriptive data analysis (Mean, SEM, Median). Statistical analysis of efficacy data was performed using the unpaired t-test. All the data analyses were performed using GraphPad Prism 5 from GraphPad Software, Inc., San Diego, USA.
The serum level of blood urea nitrogen (BUN) was measured for assessing the renal function while those of alanine aminotransferase (ALT) and aspartate aminotransferase (AST) were measured using Ektachem DT system (Johnson & Johnson Clinical Diagnostics) for assessing the liver function. The EDTA treated anticoagulated blood samples were also collected for making a complete peripheral blood count by using a Hematology Analyzer (Sysmex, XT-1800i).
For this study, 0.161 ml nsl-8 stock solution made in DMSO was mixed with 1.339 ml 0.9% w/v saline so that the volume of a final dosage solution prepared to feed an animal was 1.5 ml and containing 10% DMSO. Therefore, both administration routes and vehicles used in treating groups 2a-2b and 3a-3b animals were quite different from that used in treating groups 1a-1b animals.

What does the source list for `COc1ccc(-c2ccc3cc(C(=O)O)ccc3c2)cc1C12CC3CC(CC(C3)C1)C2` [nsl-8, 6-[3-(1-adamantyl)-4-methoxyphenyl]-2-naphthalenecarboxylic acid]?
IC50 (A549): 5.4 µM; IC50 (HCC827): 11 µM; Tumor inhibition rate (%) (HCC827 implanted tumors; Day 0): 0%; Tumor inhibition rate (%) (HCC827 implanted tumors; Day 3): 16.6%; Tumor inhibition rate (%) (HCC827 implanted tumors; Day 7): 13.8%; Tumor inhibition rate (%) (HCC827 implanted tumors; Day 10): 22.4%; Tumor inhibition rate (%) (HCC827 implanted tumors; Day 14): 28.7%; counts of neutrophils and lymphocytes (HCC827 implanted tumors; mouse, in vivo): increase; counts of red blood cells (HCC827 implanted tumors; mouse, in vivo): decrease; serum levels of BUN, ALT, and AST among treatment groups (HCC827 implanted tumors; mouse, in vivo): no significant difference; total white blood cells and platelets counted versus vehicle (HCC827 implanted tumors; mouse, in vivo): no significant difference
